Like-named read-outs stand apart in the source and are kept apart here.
What was measured:
human DGKζ = human DGKζ (Homo sapiens (Human), UniProt Q13574); assay: biochemical; format: biochemical; conditions: read-out: DGKζ LIPGLO IC50
DGKα = DGKα (Homo sapiens (Human), UniProt P23743); assay: biochemical; format: biochemical; conditions: liposome (LIPGLO) assay; read-out: DGKα LIPGLO IC50
[1] = test system: Human venous whole blood (IFN-γ); assay: Human whole blood IFN-γ assay; format: cell-based; conditions: Homo sapiens, 24 h, human whole blood, anti-CD3 plus anti-CD28, 24 hours; read-out: INFg Whole Blood Normalized Agonist EC50
Method: Assay 10: Human Whole Blood IFN-γ Assay
Human venous whole blood (22.5 μL per well), obtained from healthy donors, was pre-treated with compounds for one hour at 37° C. in a humidified 95% air/5% CO2 incubator. The blood was stimulated with 2.5 μL anti-human CD3 and anti-CD28 mAb at a final concentration of 1 μg/mL each for 24 hours at 37° C. IFN-γ in the supernatants was measured using AlphLISA kit (Cat #AL217).

naïve human CD8 T cells = assay: CellTiter-Glo CD8 T cell proliferation assay; format: cell-based; conditions: read-out: CD8 GLO Normalized EC50
Method: Assay 4: CellTiter-Glo CD8 T Cell Proliferation Assay
Frozen naïve human CD8 T cells were thawed in RPMI+10% FBS, incubated for 2 h in 37° C., and counted. The 384-well tissue culture plate was coated overnight at 4° C. with 20 μl anti-human CD3 at 0.1 μg/mL in plain RPMI, which was removed off the plate before 20 k/40 μL CD8 T cells with 0.5 μg/ml soluble anti-human CD28 were added to each well. The compounds were echoed to the cell plate immediately after the cells were plated. After 72 h incubation at 37° C. incubator, 10 μL CellTiter-glo reagent (Promega catalog number G7570) was added to each well. The plate was vigorously shaken for 5 mins, incubated at room temperature for another 15 mins and read on Envision for CD8 T cell proliferation. In analysis, 0.1 μg/mL anti-CD3 and 0.5 μg/mL anti-CD28 stimulated CD8 T cell signal was background.

[2] = test system: OT-1 CD8+ T cells with SIINFEKL-loaded MC38 tumor cells; assay: Murine cytotoxic T lymphocyte assay (IFN-γ); format: cell-based, mouse; conditions: murine cytotoxic T lymphocyte, IFN-γ, read-out: msCTL INFg IC50
From the text: Assay 6: Murine Cytotoxic T Lymphocyte Assay
An antigen-specific cytolytic T-cell (CTL) assay was developed to evaluate functionally the ability of DGKα and DGKζ inhibitors to enhance effector T cell mediated tumor cell killing activity. CD8+ T-cells isolated from the OT-1 transgenic mouse recognize antigen presenting cells, MC38, that present the ovalbumin derived peptide […]. Recognition of the cognate antigen initiates the cytolytic activity of the OT-1 antigen-specific CD8+ T cells.
Functional CTL cells were generated as follows: OT-1 splenocytes from 8-12 week old mice were isolated and expanded in the presence of the […] peptide at 1 μg/mL and mIL2 at 10 U/mL. After three days, fresh media with […] was added. On day 5 of the expansion, the CD8+ T cells were isolated and ready for use. Activated CTL cells may be stored frozen for 6 months. Separately, one million MC38 tumor cells were pulsed with 1 μg/mL of […]-OVA peptide for 3 hours at 37° C. The cells were washed (3×) with fresh media to remove excess peptide. Finally, CTL cells that were pretreated with DGK inhibitors for 1 hour in a 96-well U bottom plate were combined with the antigen loaded MC38 tumor cells at a 1:10 ratio. The cells were then spun at 700 rpm for 5 min and placed in an incubator overnight at 37° C. After 24 hours, the supernatant was collected for analysis of IFN-γ cytokine levels by AlphaLisa purchased from Perkin Elmer.

Sequence of human DGKζ (Q13574 whole entry, looked up): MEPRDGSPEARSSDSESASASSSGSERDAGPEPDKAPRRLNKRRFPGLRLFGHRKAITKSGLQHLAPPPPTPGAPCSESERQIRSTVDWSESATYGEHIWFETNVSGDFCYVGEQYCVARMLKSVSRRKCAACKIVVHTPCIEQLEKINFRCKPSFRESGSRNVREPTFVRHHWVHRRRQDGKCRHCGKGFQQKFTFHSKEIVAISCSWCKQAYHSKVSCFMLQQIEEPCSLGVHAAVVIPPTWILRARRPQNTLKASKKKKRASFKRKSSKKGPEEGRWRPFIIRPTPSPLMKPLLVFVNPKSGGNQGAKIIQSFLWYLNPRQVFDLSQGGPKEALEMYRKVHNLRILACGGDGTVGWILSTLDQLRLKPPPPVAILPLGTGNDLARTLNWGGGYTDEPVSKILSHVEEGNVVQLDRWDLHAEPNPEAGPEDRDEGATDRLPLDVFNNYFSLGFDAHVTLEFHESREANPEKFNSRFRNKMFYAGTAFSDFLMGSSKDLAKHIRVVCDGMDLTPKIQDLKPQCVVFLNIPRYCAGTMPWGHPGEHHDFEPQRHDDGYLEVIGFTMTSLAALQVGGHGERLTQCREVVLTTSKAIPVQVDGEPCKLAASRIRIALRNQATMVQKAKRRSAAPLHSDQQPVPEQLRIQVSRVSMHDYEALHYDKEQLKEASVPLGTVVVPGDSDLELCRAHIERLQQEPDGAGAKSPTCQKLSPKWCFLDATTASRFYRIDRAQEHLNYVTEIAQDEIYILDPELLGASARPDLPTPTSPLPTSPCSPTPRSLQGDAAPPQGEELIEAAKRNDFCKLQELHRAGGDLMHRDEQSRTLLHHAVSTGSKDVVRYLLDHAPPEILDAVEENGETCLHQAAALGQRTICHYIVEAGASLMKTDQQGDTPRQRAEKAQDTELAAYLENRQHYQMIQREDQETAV
Sequence of DGKα (P23743 whole entry, looked up): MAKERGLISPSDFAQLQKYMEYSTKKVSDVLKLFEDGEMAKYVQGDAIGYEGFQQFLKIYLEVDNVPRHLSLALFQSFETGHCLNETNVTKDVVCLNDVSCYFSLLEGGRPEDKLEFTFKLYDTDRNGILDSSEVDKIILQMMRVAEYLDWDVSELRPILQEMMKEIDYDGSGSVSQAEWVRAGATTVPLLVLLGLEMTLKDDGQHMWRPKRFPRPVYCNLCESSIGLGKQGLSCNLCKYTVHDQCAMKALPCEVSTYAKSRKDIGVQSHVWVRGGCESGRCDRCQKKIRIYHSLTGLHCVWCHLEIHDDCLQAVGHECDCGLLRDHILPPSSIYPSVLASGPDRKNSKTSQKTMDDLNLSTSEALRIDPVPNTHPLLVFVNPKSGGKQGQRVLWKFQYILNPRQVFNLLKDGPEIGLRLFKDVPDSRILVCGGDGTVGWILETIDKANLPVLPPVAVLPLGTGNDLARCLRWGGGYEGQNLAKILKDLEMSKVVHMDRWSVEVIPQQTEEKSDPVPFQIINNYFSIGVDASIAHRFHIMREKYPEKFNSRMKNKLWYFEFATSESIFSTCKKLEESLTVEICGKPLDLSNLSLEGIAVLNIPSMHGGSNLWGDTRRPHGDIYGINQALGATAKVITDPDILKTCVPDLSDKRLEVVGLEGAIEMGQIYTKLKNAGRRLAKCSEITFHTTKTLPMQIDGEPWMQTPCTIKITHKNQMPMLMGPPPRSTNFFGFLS

Cn1c(=O)c(C#N)c(N2CCC(Oc3ccc(OC(F)(F)F)c(F)c3)CC2)c2nc(Cl)ccc21 [Example 17, 6-chloro-4-(4-(3-fluoro-4-(trifluoromethoxy)phenoxy)piperidin-1-yl)-1-methyl-2-oxo-1,2-dihydro-1,5-naphthyridine-3-carbonitrile]
IC50 (human DGKζ; liposome (LIPGLO) assay): 240 µM
IC50 (DGKα): 1.1 µM
EC50 [1]: 10 µM
EC50 (naïve human CD8 T cells; Homo sapiens): 0.47 µM
IC50 ([2]; Mus musculus, MC-38): 1.1 µM

Cn1c(=O)c(C#N)c(N2CCC(Oc3cccc(OC(F)(F)F)c3)CC2)c2nc(Cl)ccc21 [Example 13, 6-chloro-1-methyl-2-oxo-4-(4-(3-(trifluoromethoxy)phenoxy)piperidin-1-yl)-1,2-dihydro-1,5-naphthyridine-3-carbonitrile]
IC50 (human DGKζ; liposome (LIPGLO) assay): 240 µM
IC50 (DGKα): 2 µM
EC50 [1]: 5 µM
EC50 (naïve human CD8 T cells; Homo sapiens): 1.2 µM
IC50 ([2]; Mus musculus, MC-38): 1.5 µM

Cn1c(=O)c(C#N)c(N2CCC(Oc3ccccc3)CC2)c2nc(Cl)ccc21 [Example 46, 6-chloro-1-methyl-2-oxo-4-(4-phenoxypiperidin-1-yl)-1,2-dihydro-1,5-naphthyridine-3-carbonitrile]
IC50 (human DGKζ; liposome (LIPGLO) assay): 27 µM
IC50 (DGKα): 0.15 µM
EC50 (naïve human CD8 T cells; Homo sapiens): 1.2 µM
IC50 ([2]; Mus musculus, MC-38): 8.5 µM

Cn1c(=O)c(C#N)c(N2CCC(Oc3ccc(OC(F)(F)F)cc3)CC2)c2nc(C#N)ccc21 [Example 50, 5-methyl-6-oxo-8-(4-(4-(trifluoromethoxy)phenoxy)piperidin-1-yl)-5,6-dihydro-1,5-naphthyridine-2,7-dicarbonitrile]
IC50 (human DGKζ; liposome (LIPGLO) assay): 12 µM
IC50 (DGKα): 1.6 µM
EC50 [1]: 5 µM
EC50 (naïve human CD8 T cells; Homo sapiens): 0.055 µM
IC50 ([2]; Mus musculus, MC-38): 0.99 µM

Cn1c(=O)c(C#N)c(N2CCC(Oc3ccc(OC(C)(C)C)cc3)CC2)c2nc(Cl)ccc21 [Example 31, 4-(4-(4-(tert-butoxy)phenoxy)piperidin-1-yl)-6-chloro-1-methyl-2-oxo-1,2-dihydro-1,5-naphthyridine-3-carbonitrile]
IC50 (human DGKζ; liposome (LIPGLO) assay): 11 µM
IC50 (DGKα): 0.28 µM
EC50 (naïve human CD8 T cells; Homo sapiens): 0.044 µM
IC50 ([2]; Mus musculus, MC-38): 10 µM

Cn1c(=O)c(C#N)c(N2CCC(Oc3ccc(OC(F)(F)F)cc3)CC2)c2nc(Br)ccc21 [Example 47, 6-Bromo-1-methyl-2-oxo-4-(4-(4-(trifluoromethoxy)phenoxy)piperidin-1-yl)-1,2-dihydro-1,5-naphthyridine-3-carbonitrile]
IC50 (human DGKζ; liposome (LIPGLO) assay): 240 µM
IC50 (DGKα): 0.45 µM
EC50 (naïve human CD8 T cells; Homo sapiens): 0.49 µM
IC50 ([2]; Mus musculus, MC-38): 0.68 µM

COc1ccc2c(n1)c(N1CCC(Oc3ccc(OC(F)(F)F)cc3)CC1)c(C#N)c(=O)n2C [Example 48, 6-methoxy-1-methyl-2-oxo-4-(4-(4-(trifluoromethoxy)phenoxy)piperidin-1-yl)-1,2-dihydro-1,5-naphthyridine-3-carbonitrile]
IC50 (human DGKζ; liposome (LIPGLO) assay): 3.4 µM
IC50 (DGKα): 2.7 µM
EC50 [1]: 6.4 µM
EC50 (naïve human CD8 T cells; Homo sapiens): 0.13 µM
IC50 ([2]; Mus musculus, MC-38): 0.27 µM

Cc1cc(OC(F)(F)F)ccc1OC1CCN(c2c(C#N)c(=O)n(C)c3ccc(Cl)nc23)CC1 [Example 29, -chloro-1-methyl-4-(4-(2-methyl-4-(trifluoromethoxy)phenoxy)piperidin-1-yl)-2-oxo-1,2-dihydro-1,5-naphthyridine-3-carbonitrile]
IC50 (human DGKζ): 240 µM
IC50 (DGKα): 3.8 µM
EC50 (naïve human CD8 T cells): 5.9 µM
IC50 [2]: 10 µM

Cn1c(=O)c(C#N)c(N2CCC(Oc3ccc(OC(F)(F)F)cc3Cl)CC2)c2nc(Cl)ccc21 [Example 41, 6-chloro-4-(4-(2-chloro-4-(trifluoromethoxy)phenoxy)piperidin-1-yl)-1-methyl-2-oxo-1,2-dihydro-1,5-naphthyridine-3-carbonitrile]
IC50 (human DGKζ; liposome (LIPGLO) assay): 23 µM
IC50 (DGKα): 1.1 µM
EC50 (naïve human CD8 T cells; Homo sapiens): 0.21 µM
IC50 ([2]; Mus musculus, MC-38): 10 µM

CN(C)C(=O)c1ccc(OC2CCN(c3c(C#N)c(=O)n(C)c4ccc(Cl)nc34)CC2)cc1 [Example 25, 4-((1-(6-chloro-3-cyano-1-methyl-2-oxo-1,2-dihydro-1,5-naphthyridin-4-yl)piperidin-4-yl)oxy)-N,N-dimethylbenzamide]
IC50 (human DGKζ; liposome (LIPGLO) assay): 240 µM
IC50 (DGKα): 0.73 µM
EC50 (naïve human CD8 T cells; Homo sapiens): 1.2 µM
IC50 ([2]; Mus musculus, MC-38): 10 µM

Cn1c(=O)c(C#N)c(N2CCC(Oc3ccc(OC(F)(F)F)c(Cl)c3)CC2)c2nc(Cl)ccc21 [Example 42, 6-chloro-4-(4-(3-chloro-4-(trifluoromethoxy)phenoxy)piperidin-1-yl)-1-methyl-2-oxo-1,2-dihydro-1,5-naphthyridine-3-carbonitrile]
IC50 (human DGKζ; liposome (LIPGLO) assay): 240 µM
IC50 (DGKα): 5.4 µM
EC50 (naïve human CD8 T cells; Homo sapiens): 0.7 µM
IC50 ([2]; Mus musculus, MC-38): 10 µM

Cc1cc(F)cc(OC2CCN(c3c([N+](=O)[O-])c(=O)n(C)c4ccc(F)cc34)CC2)c1 [Example 1, 6-fluoro-4-(4-(3-fluoro-5-methylphenoxy)piperidin-1-yl)-1-methyl-3-nitroquinolin-2(1H)-one]
IC50 (human DGKζ; liposome (LIPGLO) assay): 100 µM
IC50 (DGKα): 0.24 µM
EC50 [1]: 10 µM
EC50 (naïve human CD8 T cells; Homo sapiens): 1.6 µM
IC50 ([2]; Mus musculus, MC-38): 5.2 µM

Cn1c(=O)c(C#N)c(N2CCC(Oc3ccc(C(F)(F)F)cc3)CC2)c2nc(Cl)ccc21 [Example 30, 6-chloro-1-methyl-2-oxo-4-(4-(4-(trifluoromethyl)phenoxy)piperidin-1-yl)-1,2-dihydro-1,5-naphthyridine-3-carbonitrile]
IC50 (human DGKζ; liposome (LIPGLO) assay): 240 µM
IC50 (DGKα): 0.98 µM
EC50 (naïve human CD8 T cells; Homo sapiens): 10 µM
IC50 ([2]; Mus musculus, MC-38): 3.5 µM

Cc1ccc(OC2CCN(c3c(C#N)c(=O)n(C)c4ccc(Cl)nc34)CC2)cc1Cl [Example 40, 6-chloro-4-(4-(3-chloro-4-methylphenoxy)piperidin-1-yl)-1-methyl-2-oxo-1,2-dihydro-1,5-naphthyridine-3-carbonitrile]
IC50 (human DGKζ; liposome (LIPGLO) assay): 9 µM
IC50 (DGKα): 0.74 µM
EC50 (naïve human CD8 T cells; Homo sapiens): 1.2 µM
IC50 ([2]; Mus musculus, MC-38): 10 µM

COc1cc(OC2CCN(c3c(C#N)c(=O)n(C)c4ccc(Cl)nc34)CC2)ccc1Cl [Example 39, 6-chloro-4-(4-(4-chloro-3-methoxyphenoxy)piperidin-1-yl)-1-methyl-2-oxo-1,2-dihydro-1,5-naphthyridine-3-carbonitrile]
IC50 (human DGKζ; liposome (LIPGLO) assay): 14 µM
IC50 (DGKα): 0.35 µM
EC50 (naïve human CD8 T cells; Homo sapiens): 0.13 µM
IC50 ([2]; Mus musculus, MC-38): 3.7 µM

Cn1c(=O)c(C#N)c(N2CCC(Oc3ccccc3OC(F)(F)F)CC2)c2nc(Cl)ccc21 [Example 33, 6-chloro-1-methyl-2-oxo-4-(4-(2-(trifluoromethoxy)phenoxy)piperidin-1-yl)-1,2-dihydro-1,5-naphthyridine-3-carbonitrile]
IC50 (human DGKζ; liposome (LIPGLO) assay): 240 µM
IC50 (DGKα): 2.8 µM
EC50 (naïve human CD8 T cells; Homo sapiens): 10 µM
IC50 ([2]; Mus musculus, MC-38): 3.8 µM

Cn1c(=O)c(C#N)c(N2CCC(Oc3cccc(C#N)c3)CC2)c2nc(Cl)ccc21 [Example 34, 6-chloro-4-(4-(3-cyanophenoxy)piperidin-1-yl)-1-methyl-2-oxo-1,2-dihydro-1,5-naphthyridine-3-carbonitrile]
IC50 (human DGKζ; liposome (LIPGLO) assay): 9 µM
IC50 (DGKα): 1.1 µM
EC50 (naïve human CD8 T cells; Homo sapiens): 4.1 µM
IC50 ([2]; Mus musculus, MC-38): 8.5 µM

Cn1c(=O)c(C#N)c(N2CCC(Oc3ccc(C#N)c(Cl)c3)CC2)c2nc(Cl)ccc21 [Example 38, 6-chloro-4-(4-(3-chloro-4-cyanophenoxy)piperidin-1-yl)-1-methyl-2-oxo-1,2-dihydro-1,5-naphthyridine-3-carbonitrile]
IC50 (human DGKζ; liposome (LIPGLO) assay): 9 µM
IC50 (DGKα): 1.8 µM
EC50 (naïve human CD8 T cells; Homo sapiens): 1.6 µM
IC50 ([2]; Mus musculus, MC-38): 10 µM

Cn1c(=O)c(C#N)c(N2CCC(Oc3cccc(C(F)(F)F)c3)CC2)c2nc(Cl)ccc21 [Example 24, 6-chloro-1-methyl-2-oxo-4-(4-(3-(trifluoromethyl)phenoxy)piperidin-1-yl)-1,2-dihydro-1,5-naphthyridine-3-carbonitrile]
IC50 (human DGKζ; liposome (LIPGLO) assay): 27 µM
IC50 (DGKα): 2 µM
EC50 (naïve human CD8 T cells; Homo sapiens): 0.75 µM
IC50 ([2]; Mus musculus, MC-38): 1.5 µM

Source: patent US11964973B2 (priority 2019, dated 2024)
